{"source": "paper PMC9500407", "about": "“Quantifying the transport of biologics across intestinal barrier models in real-time by fluorescent imaging” (Frontiers in Bioengineering and Biotechnology, 2022)", "key": {"[1]": {"test_system": "Caco-2:HT29-MTX E12 coculture tubules", "test": "Live cell imaging of cellular uptake and intracellular localization in coculture tubules", "assay_type": "cell-based, human", "description": "Spinning disc (SD) confocal microscopy was performed on a Nikon Ti2 inverted microscope equipped with a Yokogawa CSU-W1 module and a Photometrics Prime 95B sCMOS camera was used for all experiments (excl. Image-based TAT transport). The set-up includes four excitation lasers 405/488/561/638 nm with 442/42, 520/28 BrightLine HC filters and 600/50 ET, 700/75 ET bandpass filters. For this work, a set of CFI Plan Apochromat Lambda objectives were used: ×4/0.2, 20x/0.75, 60x/1.4 and 100x/1.45. For image-based transport experiments, epi-fluorescence microscopy was performed using a Nikon Eclipse Ti2 microscope equipped with an LED source (CoolLED), a dual-band filter cube (AHF, Excitation 455–489 nm, 557–588 nm; Emission 506–542 nm, 605–660 nm) and a Photometrics Evolve 512 electron-multiplying charge-coupled device camera was used (10x N.A. 0.30).\nHere, the cells were counterstained with Hoechst (H1399, Thermo Fischer, 10 μg ml^−1) and incubated for 1 h at 37°C, 5% CO2, washed with PBS and images were acquired using SD confocal microscopy with 488 nm laser and 520/28 BrightLine HC filters for detecting FITC-labelled TAT and the 405 nm laser and 442/42 BrightLine HC filter for acquiring Hoechst. […] The transport of TAT was tracked over 2 h, acquiring time lapse images every 30 s using epi-fluorescence microscopy (see Imaging modalities). […]"}, "[2]": {"test_system": "Caco-2:HT29-MTX E12 coculture tubules", "test": "Barrier integrity monitored by co-applied TRITC-dextran (TD) during peptide transport", "assay_type": "cell-based, human", "conditions": "INS chips with and without TAT", "description": "Here, the cells were counterstained with Hoechst (H1399, Thermo Fischer, 10 μg ml^−1) and incubated for 1 h at 37°C, 5% CO2, washed with PBS and images were acquired using SD confocal microscopy with 488 nm laser and 520/28 BrightLine HC filters for detecting FITC-labelled TAT and the 405 nm laser and 442/42 BrightLine HC filter for acquiring Hoechst. The cell tubules exposed to TAT/INS (24 µM/50 μM, IS1-AF647-1, Nanocs) were stained with above mentioned cellular dyes and CellMask-green (C37608, Thermo Fisher, 1:500) for 30 min on ice after 3 h of incubation. The transport of TAT was tracked over 2 h, acquiring time lapse images every 30 s using epi-fluorescence microscopy (see Imaging modalities). […] To simultaneously monitor the barrier integrity TD (0.5 mg ml^−1) was co-applied to the chips and measured in parallel to TAT. For the quantification of both TAT, INS and TD transport across the cell barrier, calibration curves were established. […]\nNext we used the platform to study the barrier transport kinetics of TAT. We performed whole-chip real-time live cell imaging, to quantify the concentration of TAT transported across the coculture cell layer and reaching the receiving channel (Figure 6B). […] Both the FITC and TRITC channels were recorded for each tubular system every 30 s for a total of 2.5 h. […]"}, "[3]": {"test_system": "Caco-2:HT29-MTX E12 coculture tubules", "test": "Image-based real-time quantification of TAT and TAT/INS transport across coculture tubules", "conditions": "50 µM INS, whether or not TAT (24 µM) was present, over 3 h, n = 3", "procedure": "We performed whole-chip real-time live cell imaging, to quantify the concentration of TAT transported across the coculture cell layer and reaching the receiving channel (Figure 6B). […] Both the FITC and TRITC channels were recorded for each tubular system every 30 s for a total of 2.5 h. […] A calibration experiment where known concentrations of TAT or TD were added to a chip without cells allowed us to convert the measured intensities to actual concentration in μM and mg mL^−1 respectively (Supplementary Figure S5). […]"}}}
{"substance": "INS: AlexaFluor647-labeled insulin (IS1-AF647-1, Nanocs)", "values": [{"measurement": "Intracellular localization of INS", "setting": "[1]; INS and INS/TAT, 3 h, 100x, indicating endosomal uptake", "result": "localized inside the cytosol in punctual patterns"}, {"measurement": "Cellular internalization of INS", "setting": "[1]; after 3 h, live cell imaging, with and without TAT", "result": "internalized into the enterocyte cell layer even without TAT"}, {"measurement": "Barrier integrity", "setting": "[2]", "result": "not compromised significantly"}, {"measurement": "INS transport across the cell barrier", "setting": "[3]", "result": "no INS transport across the cell barrier"}]}
